Consider 30 molecules from ChEMBL document CHEMBL5113402, “Inhibition of cytochrome P450 monooxygenase-catalyzed oxylipin formation by flavonoids: Evaluation of structure-activity relationship towards CYP4F2-selective inhibitors” (Eur J Med Chem, 2022).

Converted amounts (≈) assume the structure as drawn. Bounds are passed on as bounds.

Series [1] has as its target CYP450 (EpETrE formation) (Homo sapiens, UniProt P04798+P05177+P05181+P08684+P10632+P10635+P11509+P11712+P13584+P20813+P20815+P20853+P24462+P24903+P33260+P33261+P51589+P78329+P98187+Q02928+Q08477+Q16678+Q16696+Q5TCH4+Q6VVX0+Q7Z449+Q8TAV3+Q96SQ9+Q9HB55). Briefly: Inhibition of CYP450 in human liver microsomes assessed as inhibition of EpETrE formation at 10 uM in presence of arachidonic acid and NADPH by multi-enzyme assay based LC-MS/MS analysis relative to control. The series is classed as ADME, Microsome. The settings on record: probe arachidonic acid.

The species named for the next series is Homo sapiens. The series is described as follows: Selectivity index, log ratio of Inhibition of CYP450 in human liver microsomes assessed as inhibition of EpETrE formation in presence of arachidonic acid to Inhibition of CYP450 in human liver microsomes assessed as inhibition of 20-HETE formation in presence of arachidonic acid.
Series [2] concerns the target CYP450 (20-HETE formation) (Homo sapiens, UniProt P04798+P05177+P05181+P08684+P10632+P10635+P11509+P11712+P13584+P20813+P20815+P20853+P24462+P24903+P33260+P33261+P51589+P78329+P98187+Q02928+Q08477+Q16678+Q16696+Q5TCH4+Q6VVX0+Q7Z449+Q8TAV3+Q96SQ9+Q9HB55). The series is described as follows: Inhibition of CYP450 in human liver microsomes assessed as inhibition of 20-HETE formation at 10 uM in presence of arachidonic acid and NADPH by multi-enzyme assay based LC-MS/MS analysis relative to control. The series is classed as ADME, Microsome. The settings on record: probe arachidonic acid.

The target in the next series is T1, Cytochrome P450 4F2 (Homo sapiens, UniProt P78329).
T1 sequence (P78329 whole entry): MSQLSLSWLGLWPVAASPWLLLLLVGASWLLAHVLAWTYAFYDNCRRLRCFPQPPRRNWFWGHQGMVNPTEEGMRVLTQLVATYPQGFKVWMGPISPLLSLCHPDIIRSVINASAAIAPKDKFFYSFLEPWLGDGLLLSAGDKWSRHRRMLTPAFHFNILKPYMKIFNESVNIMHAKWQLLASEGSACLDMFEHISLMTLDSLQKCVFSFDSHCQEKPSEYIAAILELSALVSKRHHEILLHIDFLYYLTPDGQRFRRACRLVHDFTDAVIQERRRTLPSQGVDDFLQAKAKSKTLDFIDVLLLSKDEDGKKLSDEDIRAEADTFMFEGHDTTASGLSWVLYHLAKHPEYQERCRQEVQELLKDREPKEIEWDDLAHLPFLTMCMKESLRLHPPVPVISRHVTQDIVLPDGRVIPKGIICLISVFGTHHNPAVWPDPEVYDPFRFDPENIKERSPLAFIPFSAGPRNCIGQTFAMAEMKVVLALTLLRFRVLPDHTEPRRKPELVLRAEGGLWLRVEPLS
Briefly: Inhibition of recombinant CYP4F2 (unknown origin) incubated for 5 to 15 mins in presence of NADPH by LC-MS/MS analysis. The series is classed as ADME.

A short description of series [3]: Solubility of the compound in phospahte-buffered saline buffer at pH 7.4 by shake flask method. In kind it is physicochemical. The settings on record: phosphate-buffered saline.

With `COc1ccccc1-c1cc(=O)c2ccccc2o1`, the inhibition (in general, the share of the control response that was lost under treatment) at 10 µM in series [1] is 37%; in series [2] it was less than 15%. Moreover, the log(ratio) in the series filed under Homo sapiens was -0.4.
The matching figures for `O=c1cc(-c2ccccc2)oc2ccccc12` [FLAVONE]: less than 15%, less than 15% and 0.
The matching figures for `O=c1cc(-c2ccc(O)c(O)c2)oc2ccccc12`: 19%, 32% and 0.17.
In the case of `O=c1c(-c2ccc(O)cc2)coc2cc(O)cc(O)c12` [GENISTEIN], the inhibition at 10 µM in series [1] was less than 15%; in series [2], 39%. Besides, in the series filed under Homo sapiens, the log(ratio) stood at 0.49.
The corresponding values for `COc1ccc(-c2cc(=O)c3ccccc3o2)cc1` [4'-METHOXYFLAVONE] are 20%, 27% and 0.13.
The corresponding values for `O=c1cc(-c2ccc(O)cc2)oc2ccccc12` are less than 15%, less than 15% and 0.05.
On to `COc1ccc2oc(-c3ccc(OC)c(OC)c3)cc(=O)c2c1`, for which the inhibition at 10 µM in series [1] and in series [2] was less than 15% in each case. Further, in the series filed under Homo sapiens, the log(ratio) was 0.07.
With `O=c1cc(-c2ccc(Br)cc2)oc2ccc(O)cc12`, the inhibition at 10 µM in series [1] and in series [2] was less than 15% each time. For the same molecule, the log(ratio) in the series listed under Homo sapiens came out at 0.
Regarding `COc1cccc(-c2cc(=O)c3cc(OC)ccc3o2)c1` [6,3'-DIMETHOXYFLAVONE], the inhibition at 10 µM in series [1] and in series [2] was less than 15% throughout. Moreover, in the series listed under Homo sapiens, the log(ratio) was -0.09.
Take `COc1cc2oc(-c3ccccc3)cc(=O)c2c(OC)c1OC` [BAICALEIN TRIMETHYL ETHER]: the inhibition at 10 µM in series [1] and in series [2] was less than 15% throughout. In the series filed under Homo sapiens, the log(ratio) is -0.09.
In the case of `O=c1cc(-c2ccccc2)oc2cc(O)c(O)c(O)c12` [BAICALEIN], the values for the inhibition at 10 µM in series [1] and in series [2] were 32% and less than 15%, respectively. Besides, the log(ratio) in the series listed under Homo sapiens was -0.36.
The corresponding values for `O=c1cc(-c2ccc(Br)cc2)oc2ccccc12` are less than 15%, 35% and 0.4.
The matching figures for `COc1ccc(-c2cc(=O)c3ccccc3o2)cc1OC` [3',4'-DIMETHOXYFLAVONE]: less than 15%, 18% and 0.08.
The corresponding values for `O=c1cc(-c2ccccc2)oc2ccc(O)cc12` [6-HYDROXYFLAVONE] are 15%, less than 15% and -0.01.
Consider `COc1ccc(-c2coc3cc(O)cc(O)c3c2=O)cc1` [BIOCHANIN], for which the inhibition at 10 µM in series [1] was less than 15%; in series [2] it was 25%. Besides, in the series listed under Homo sapiens, the log(ratio) amounted to 0.25.
For the molecule `O=c1cc(-c2ccc(O)c(O)c2)oc2ccc(O)cc12`, the values for the inhibition at 10 µM in series [1] and in series [2] were less than 15% and 26%, respectively. Further, in the series filed under Homo sapiens, the log(ratio) is 0.29.
Take `CC(=O)OC[C@@]12CC[C@@]3(C)[C@H]4C(=CC[C@]3(C)[C@H]1[C@H](O)C[C@H]2C(C)C)[C@@]1(C)CCC(=O)C(C)(C)[C@@H]1C[C@@H]4O` [RUBIARBONONE C]: the concentration for half-maximal inhibition (IC50) – broadly, the point on the concentration scale where inhibition reaches its midpoint – on Cytochrome P450 4F2 stood at 4.2 µM.
In the case of `O=c1cc(-c2ccccc2)oc2cc(O)ccc12` [7-HYDROXYFLAVONE], the inhibition at 10 µM was 35% in series [1] and less than 15% in series [2].
In the case of `COc1ccc2oc(-c3ccc(Br)cc3)cc(=O)c2c1`, the inhibition at 10 µM in series [1] is less than 15%; in series [2], 17%. Moreover, the log(ratio) in the series listed under Homo sapiens worked out at 0.16.
As for `COc1ccc(-c2coc3ccccc3c2=O)cc1OC`, the results for the inhibition at 10 µM in series [1] and in series [2] were less than 15% and 27%, respectively. In the series listed under Homo sapiens, the log(ratio) came to 0.22.
Take `COc1ccc(-c2coc3ccccc3c2=O)cc1`: the inhibition at 10 µM in series [1] and in series [2] was less than 15% in each case. The log(ratio) in the series listed under Homo sapiens amounted to 0.18.
As to `Cc1ccc(-c2cc(=O)c3ccccc3o2)cc1`, the values for the inhibition at 10 µM in series [1] and in series [2] were 26% and 32%, respectively. In the series filed under Homo sapiens, the log(ratio) was 0.07.
The matching figures for `COc1ccc2oc(-c3ccccc3)cc(=O)c2c1` [6-METHOXYFLAVONE]: 16%, less than 15% and -0.05.
With `COc1ccccc1-c1coc2ccccc2c1=O`, the inhibition at 10 µM in series [1] and in series [2] was less than 15% in each case. Besides, in the series listed under Homo sapiens, the log(ratio) was -0.15.
Regarding `O=c1c(-c2ccccc2)coc2ccccc12` [ISOFLAVONE], the inhibition at 10 µM in series [1] and in series [2] was less than 15% throughout. In the series filed under Homo sapiens, the log(ratio) stood at 0.19.
Turning to `COc1ccc2oc(-c3ccc(C(F)(F)F)cc3)cc(=O)c2c1`, the results for the inhibition at 10 µM in series [1] and in series [2] were less than 15% and 55%, respectively. Moreover, in the series filed under Homo sapiens, the log(ratio) is 0.59. Moreover, the thermodynamic solubility (commonly the concentration in solution at equilibrium with solid) in series [3] amounted to 1 µM (≈ 0.32 µg/mL).
As to `O=c1cc(-c2ccccc2O)oc2ccccc12`, the results for the inhibition at 10 µM in series [1] and in series [2] were 24% and less than 15%, respectively. For the same molecule, the log(ratio) in the series listed under Homo sapiens was -0.29.
For `COc1cccc(-c2coc3ccccc3c2=O)c1`, the inhibition at 10 µM in series [1] and in series [2] was less than 15% throughout. Besides, the log(ratio) in the series listed under Homo sapiens was 0.
Regarding `COc1ccc(-c2cc(=O)c3cc(OC)ccc3o2)cc1` [6,4'-DIMETHOXYFLAVONE], the inhibition at 10 µM in series [1] and in series [2] was less than 15% throughout. The log(ratio) in the series listed under Homo sapiens turned out to be 0.
As for `COc1ccc2c(=O)cc(-c3ccccc3)oc2c1` [7-METHOXYFLAVONE], the inhibition at 10 µM is 50% in series [1] and less than 15% in series [2].
